For data set [1], the system named is CoN cells. Kind of data set: Mitochondrial membrane permeability, rhodamine 123 flow cytometry. The class given is cell-based, human. Particulars: control treated cells assigned 100%. The source says: (§1) Mitochondria play a crucial role in the apoptotic cascade by serving as a convergent center of apoptotic signals originating from both the extrinsic and intrinsic pathways. Changes induced in the mitochondrial membrane potential (MMP) have been reported previously to represent a determinant in the execution of cell death. As polygodial has been described as an inhibitor of mitochondrial ATPase and also as nonionic surfactant. This effect may be determinant in cell death, we has analyzed the effect of compounds 1, 8 and 12 on the mitochondrial membrane potential using flow cytometry with rhodamine 123 stain [24]. […] Similar differences were observed after treatments with compounds 1 and 8 at 100 μM.
(§2) Rhodamine 123, a cationic, voltage-sensitive probe that reversibly accumulates in mitochondria, was used to detect changes in transmembrane mitochondrial membrane potentials. Cells were labelled with 1 μM rhodamine 123 at 37 °C in cell medium for 60 min before terminating the experiment. Cells were detached from the plate, after washing with ice cold PBS, and the samples were analyzed by flow cytometry. Data are expressed in percentage of cells with rhodamine 123 [24].

In data set [2] the test system is MCF-7 cells. The data set is described as above. The class given is cell-based, human. Particulars: control treated cells assigned 100%.
Text: as §1, §2

Data set [3] deals with PC-3 cells. Described as above. The format is cell-based, human. Particulars: control treated cells assigned 100%.
Text: as §1, §2

Data set [4] concerns caspase-3 in CoN cells. Kind of data set: Caspase 3 activity assay (colorimetric, DEVD-pNA). The format is cell-based, human. Particulars: compound 50 μM, control 1% ethanol. The source says:
(§3) Depletion of mitochondrial membrane potential leads to the release of apoptogenic factors, such as cytochrome c in the apoptotic cascade, and activation of caspases. Then we investigated the effects of our compounds on caspase activity. We focused on caspase-3, which is a main executor of apoptosis playing a central role in its biological processing. We analyzed the effect of treatment with the compound 1, 8 and 12 on caspase-3 activation in normal and cancer cells. […] Compound 1 increased the activity of caspase-3 by 3.4 ± 0.1, 1.4 ± 0.1 and 2.8 ± 0.1 times versus control cells in MCF-7 (black), CoN (white) and PC-3 (gray) cells, respectively. Compound 8 increased the activity of caspase 3 by 2.4 ± 0.1, 1.3 ± 0.2 and 2.7 ± 0.1 times versus control cells in MCF-7 (black), CoN (white) and PC-3 (gray) cells, respectively.
(§4) Caspase activity was measured using a colorimetric assay. Briefly, the cells exposed to compounds were collected by centrifugation at 1000 rpm and lysed with lysis buffer (1% Triton X-100, 0.32 M sucrose, 5 mM EDTA, 10 mM Tris–HCl, pH 8.0, 2 mM dithiothreitol, 1 mM PMSF, […] aprotinin, 1 mg/mL leupeptin). Thereafter, the lysates were transferred to wells in a 96-well microplate and were incubated with DEVD-pNA (final concentration 200 μM) specific for caspase-3/7, at 37 °C for 1 h. The intensity of the developed color was read at 405 nm in a microplate reader (SpectraMax, Winooski, VT, USA). The results are expressed as percentages of the control level.

Data set [5] has as its system caspase-3 in MCF-7 cells. Kind of data set: Caspase 3 activity assay (colorimetric, DEVD-pNA). The class given is cell-based, human. The following applies: MCF-7, compound 50 μM; control 1% ethanol.
Text: as §3, §4

Data set [6] has as its system caspase-3 in PC-3 cells. Kind of data set: Caspase 3 activity assay (colorimetric, DEVD-pNA). The class given is cell-based, human. Particulars: PC-3, compound 50 μM; control 1% ethanol.
Text: as §3, §4

The test system of data set [7] is CoN cells. Kind of data set: Morphological changes, phase contrast microscope. The format is cell-based, human. The following applies: 50 μM compound for 24 h. The procedure: (§5) First, the appearance of morphological changes in the cells treated with 50 μM compound for 24 h was analyzed.
Data set [8] relates to MCF-7 cells. Kind of data set: Morphological changes, phase contrast microscope. The format is cell-based, human. Particulars: MCF-7, 50 μM compound for 24 h. The procedure: as §5
The test system of data set [9] is PC-3 cells. Kind of data set: Morphological changes, phase contrast microscope. Particulars: PC-3, 50 μM compound for 24 h. The class given is cell-based, human. The procedure:
as §5

In data set [10] the test system is CoN cells. Kind of data set: Morphological assessment of cell apoptosis, Hoechst 33342 staining. The class given is cell-based, human. Particulars: 24 h exposure, fluorescence microscope. The procedure:
(§6) Nuclear changes in PC-3, MCF-7 and CoN cells were observed under a fluorescence microscope (200×, Figure 4).
(§7) Briefly, on 24-well chamber slides, 1 × 10^4 cells/mL were cultured and exposed to compounds for 24 h. The control group was also exposed to 1% ethanol. The cells were washed twice with phosphate buffer solution, fixed with 3.7% formaldehyde, and washed again with phosphate buffer solution. Following the addition of 1 μM Hoechst 33342 (Sigma-Aldrich, Santiago, Chile), they were reacted in a dark room at room temperature for 30 min. After washing, they were examined under an immunofluorescence microscope (IX 81 model inverted microscope, Olympus, Santiago, Chile).

For data set [11], the system named is MCF-7 cells. Described as above. The class given is cell-based, human. The following applies: MCF-7, 24 h exposure, fluorescence microscope. How it is done: as §6, §7
Data set [12] concerns PC-3 cells. The description is as above. The class given is cell-based, human. The following applies: PC-3, 24 h exposure, fluorescence microscope. How it is done:
as §6, §7

Data set [13] has as its system panel of cancer cell lines. Kind of data set: Cytotoxicity against a panel of cancer cell lines (summary). The class given is cell-based. Particulars: Homo sapiens; summary statement of the conclusions. How it is done: The cytotoxicity of compounds 1–12 was evaluated in vitro against different cancer cell lines: MCF-7 breast cancer, DU-145 and PC-3 human prostate cancer, and one non-tumor cell line, human colon epithelial cells CCD 841 CoN (CoN). […] Four serial dilutions (from 12.5 to 100 μM) for each sample were evaluated in triplicate.
The sulforhodamine B assay was used according to the method of Skehan et al.. Briefly, the cells were set up at 3 × 10^3 cells per well of a 96 200 μL well, flat-bottomed, microplate. Cells were incubated at 37 °C in a humidified 5% CO2/95% air mixture and treated with the compounds at different concentrations for 72 h. At the end of drug exposure, cells were fixed with 50% trichloroacetic acid at 4 °C. After washing with water, cells were stained with 0.1% sulforhodamine B (Sigma-Aldrich, St. Louis, MO, USA), dissolved in 1% acetic acid (50 μL/well) for 30 min, and subsequently washed with 1% acetic acid to remove unbound stain. Protein-bound stain was solubilized with 100 μL of 10 mM unbuffered Tris base, and the cell density was determined using a […] plate reader (wavelength 540 nm). Values shown are the mean ± SD of three independent experiments in triplicate. The software used to calculate the IC50 values was GraphPad (GraphPad Software, San Diego, CA, USA).

Data set [14] deals with Salmonella strains TA 98, TA 2637, and TA 100. The following applies: at highest non-toxic concentration; cited from earlier work.

As to `CC1(C)CCC[C@]2(C)[C@@H](C=O)C(C=O)=CC[C@@H]12` [Compound 1, polygodial], the “percentage of rhodamine 123 stained cells” value in data set [1] (compound 50 µM) was 111.6% ± 8.9%; in data set [1] (compound 50 µM, listed as Comp. 1) it was 49.1 ± 6.6 %; in [1] (compound 100 µM) it was 11.8 ± 2.9 %; in data set [2] (MCF-7, compound 50 µM), 77.0% ± 6.5%; in data set [2] (MCF-7, compound 50 µM, listed as Comp. 1), 77.0 ± 6.5 %; in data set [2] (MCF-7, compound 100 µM) it was 19.4 ± 1.5 %. The “percentage of rhodamine 123 stained cells” value in data set [3] (PC-3, compound 50 µM) is 49.1% ± 6.6%; in data set [3] (PC-3, compound 50 µM, listed as Comp. 1), 111.6 ± 8.9%; in [3] (PC-3, compound 100 µM), 11.9 ± 2.4 %. Further, the “increase of caspase-3 activity” value in data set [4] is on record as 1.4 ± 0.1 times versus control cells; in data set [5], 3.4 ± 0.1 times versus control cells; in [6], 2.8 ± 0.1 times versus control cells. Further, the “morphological changes of cells” value in data set [7], in data set [8] and in data set [9] was “severely distorted” throughout. Further, the “nuclear changes after Hoechst 33342 staining” value in [10] was “chromatin condensation and karyopyknosis”; in data set [11], “chromatin condensation and karyopyknosis”; in data set [12], “chromatin condensation and karyopyknosis”. The IC50 in [13] was below 200 µM. Further, the mutagenic activity entry in [14] was “no mutagenic activity”.

(Values after PMC6270921, “Study on the Cytotoxic Activity of Drimane Sesquiterpenes and Nordrimane Compounds against Cancer Cell Lines” (Molecules, 2014).)
